Assay results taken from patent publication US4963563A, “6-substituted-1,2,3,4-tetrahydroisoquinolines” (Abbott Laboratories, priority 1989, dated 1990).
Counter-ions that a name gives are not always drawn.

Tests used:
[1] = target: T1, alpha-1-receptor (Rattus norvegicus, UniProt P15823); experiment: Radioligand binding, alpha-1 adrenoceptor ([3H]-pyrazosin, rat liver homogenates)
T1 sequence (P15823 1-515): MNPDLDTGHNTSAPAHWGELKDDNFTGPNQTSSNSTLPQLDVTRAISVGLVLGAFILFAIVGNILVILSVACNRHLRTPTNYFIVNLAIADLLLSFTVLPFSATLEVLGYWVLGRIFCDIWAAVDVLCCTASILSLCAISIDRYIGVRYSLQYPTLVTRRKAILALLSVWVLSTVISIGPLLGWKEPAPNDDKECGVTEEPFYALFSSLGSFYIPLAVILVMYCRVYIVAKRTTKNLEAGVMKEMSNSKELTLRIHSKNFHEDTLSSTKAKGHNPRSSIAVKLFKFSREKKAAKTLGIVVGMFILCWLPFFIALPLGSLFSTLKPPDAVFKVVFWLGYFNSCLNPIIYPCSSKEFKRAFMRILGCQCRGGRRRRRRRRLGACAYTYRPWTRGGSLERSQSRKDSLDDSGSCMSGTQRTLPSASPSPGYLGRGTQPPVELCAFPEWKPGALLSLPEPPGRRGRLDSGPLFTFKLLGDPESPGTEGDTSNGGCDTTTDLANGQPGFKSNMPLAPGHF

[2] = target: alpha-2-receptor; experiment: Radioligand binding, alpha-2 adrenoceptor ([3H]-rauwolscine, rat cerebral cortices)
[3] = tested on: normal eyes of rabbits (intraocular pressure); experiment: Antiglaucoma activity: intraocular pressure after instillation into normal eyes of rabbits; type: in vivo, male, albino New Zealand rabbits
Description: In order to evaluate antiglaucoma activity, the test compounds were dissolved in the vehicle, a 0.2% aqueous solution of hydroxymethylcellulose at various concentrations such as 0.03%, 0.1%, or 0.3%. Comparisons were made to the reference standard, pilocarpine hydrochloride which was dissolved in the vehicle at a concentration of 0.5%. Control treatment was a volume dose of vehicle.
Male, albino New Zealand rabbits (Scientific Animal Farms and/or Kuiper's Rabbit Ranch) weighing 2.06-2.5 kg were used in the study. Intraocular pressures were obtained in the normal eyes of the animals using a Bausch and Lomb Applamatic Tonometer. Three separate sessions provided the baseline pressures for each eye. The test compound or vehicle (0.1 mL) was instilled into the eyes of 6 different rabbits according to a randomized dosing schedule. Intraocular pressures were taken at 5, 15, 30, 45, 60, 90 and 120 minutes after instillation of the test compounds.
Statistical treatment was by one-way analysis of variance. Results are shown (Table 1) for a representative sample of the compounds claimed.

[4] = 5 minutes after administration, 0.3% solution, 0.1 mL instilled
[5] = 15 minutes after administration, 0.3% solution, 0.1 mL instilled
[6] = 90 minutes after administration, 0.3% solution, 0.1 mL instilled
[7] = 120 minutes after administration, 0.3% solution, 0.1 mL instilled

Compound | Ki [1] [nM] | Ki [2] [nM] | Percent Change in IOP vs Baseline [3, 4] [%] | Percent Change in IOP vs Baseline [3, 5] [%] | Percent Change in IOP vs Baseline [3, 6] [%] | Percent Change in IOP vs Baseline [3, 7] | further results
COc1ccc2c(c1)CCN(CCCc1cccs1)C2.Cl [Example 2, 1,2,3,4-Tetrahydro-6-methoxy-N-3-(2-thienyl)propylisoquinoline hydrochloride] | 150 | 4.3 | -50 | -41 | -13 | +8% | –
COc1ccc2c(c1)CCN(CCCc1cccc(F)c1)C2 [Example 5, 1,2,3,4-Tetrahydro-6-methoxy-N-3-(m-fluorophenyl)propyl isoquinoline hydrochloride] | 206 | 4.6 | – | – | – | – | –
COc1ccc2c(c1)CCN(CCCc1ccco1)C2 [Example 6, 1,2,3,4-Tetrahydro-6-methoxy-N-3-(2-furyl)propylisoquinoline hydrochloride] | 154 | 2.2 | – | – | – | – | –
CC(C)(C)C(=O)Oc1ccc2c(c1)CCN(CCCc1cccs1)C2.CS(=O)(=O)O [Example 16, 1,2,3,4-Tetrahydro-6-trimethylacetoxy-N-3-(2-thienyl)propylisoquinoline methane sulfonate] | – | – | -11 | -12 | -36 | -4% | –
CN(C)C(=O)Oc1ccc2c(c1)CCN(CCCc1cccs1)C2.CS(=O)(=O)O [Example 18, 1,2,3,4-Tetrahydro-6-((dimethylamino)carbonyl)oxy-2-N-(3-(2-thienyl)propyl)isoquinoline methane sulfonate] | – | – | -38 | -26 | -48 | -12% | –
CC[C@@H]1C(=O)OC[C@@H]1Cc1cncn1C [Pilocarpine, pilocarpine hydrochloride, reference compound] | – | – | – | – | – | – | Percent Change in IOP vs Baseline ([3]; 15 minutes after administration, 0.5% solution (reference standard)): -22%; Percent Change in IOP vs Baseline ([3]; 90 minutes after administration, 0.5% solution (reference standard)): -20%; Percent Change in IOP vs Baseline ([3]; 120 minutes after administration, 0.5% solution (reference standard)): -33%

Now from value to compound, other results behind:

Ki [1] [nM] | Ki [2] [nM] | Compound | Percent Change in IOP vs Baseline [3, 4] [%] | Percent Change in IOP vs Baseline [3, 5] [%] | Percent Change in IOP vs Baseline [3, 6] [%] | Percent Change in IOP vs Baseline [3, 7] | further results
217 | 5.9 | COc1ccc2c(c1)CCN(CCCc1ccccc1)C2 [Example 7, 1,2,3,4-Tetrahydro-6-methoxy-N-(3-phenylpropyl)isoquinoline hydrochloride] | – | – | – | – | –
174 | 10.7 | COc1cccc(CCCN2CCc3cc(OC)ccc3C2)c1 [Example 8, 1,2,3,4-Tetrahydro-6-methoxy-N-3-(3-methoxyphenyl)propyl isoquinoline hydrochloride] | – | – | – | – | –
114 | 5.6 | Cc1ccc2c(c1)CCN(CCCc1ccccc1)C2 [Example 13, 1,2,3,4-Tetrahydro-6-methyl-N-(3-(phenylpropylisoquinoline Hydrochloride] | – | – | – | – | –
